These results are taken from PubChem BioAssay (NCI).

SMILES strings stand for the structures.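 Following 48 hours of exposure in 96-well plates, responses at five concentrations were used to interpolate endpoints linearly. GI50 marks 50% less growth. Definition used: TGI = concentration required for complete inhibition of growth.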

Assay in all cases: growth of human tumour cells (NCI), 48 h
Assay [1] relates to SK-MEL-28 melanoma.
The subject of assay [2] is M14 melanoma.
Assay [3] relates to COLO 205 colon.
The subject of assay [4] is CAKI-1 renal.
Assay [5] deals with NCI-H23 lung.
Assay [6] has as its system MOLT-4 leukemia.
Assay [7] deals with A549 NSCLC.
In assay [8] the test system is ACHN renal.
Assay [9] has as its system HCT-116 colon.

With `CC1(Cl)C(=O)NC(=O)N(C2CC(N=[N+]=[N-])C(CO)O2)C1N=[N+]=[N-]` (stereo not given), the TGI in [1], in assay [2], in [3], in assay [4], in assay [5] and in assay [6] was above 100 µM throughout. Moreover, the TGI in [7] and in assay [8] was above 100 µM in each case.

In the case of `O=C1C=CC(=Nc2ccc3c(c2)C(Br)c2ccccc2-3)O1` (stereo not given), the TGI in assay [9], in assay [1], in [2], in assay [3], in [5] and in [6] was above 100 µM throughout. Moreover, the TGI in [7] and in [8] was above 100 µM throughout.

Turning to `O=C(CI)NC1Oc2ccccc2-c2oc(=O)c(-c3ccccc3)cc21` (stereo not given), the GI50 in assay [1] is 1.81 µM; in assay [2] it was 1.67 µM; in assay [3], 1.81 µM; in assay [4] it was 1.67 µM; in assay [7] it was 2.36 µM. For the same molecule, the TGI was 3.31 µM in assay [1]; 3.2 µM in assay [2]; 3.92 µM in assay [3]; 3.05 µM in [4]; 6.16 µM in [7].

On to `CC(=O)Nc1ccccc1Sc1ccccc1`, for which the TGI in assay [9], in assay [1], in [2], in assay [3], in assay [4] and in assay [5] was above 100 µM in each case. Besides, the TGI in assay [6], in assay [7] and in assay [8] was above 100 µM in each case.

For the molecule `Cc1cc2c(cc1C)[n+](=O)c(C(=O)CC(=O)C(=O)Nc1c(C(C)C)cccc1C(C)C)c(C)n2[O-]`, the TGI in assay [9], in assay [1], in [2], in [3], in [4] and in assay [5] was above 100 µM throughout. Besides, the TGI in assay [6], in [7] and in assay [8] was above 100 µM each time.

In the case of `N#CC(C(=N/O)/C(=N/O)C(C#N)c1ccc(Cl)cc1)c1ccc(Cl)cc1` (stereo not given), the TGI in assay [9], in assay [1], in assay [2], in [3], in [4] and in [5] was above 100 µM in each case. In addition, the TGI in assay [7] and in assay [8] was above 100 µM in each case.

For the molecule `N#C/C(=C/c1ccsc1)C(=O)c1ccccc1`, the TGI in assay [9], in assay [1], in assay [2], in [3], in assay [4] and in [5] was above 100 µM throughout. Moreover, the TGI in assay [6], in assay [7] and in assay [8] was above 100 µM each time.

Turning to `O=C1OCc2c1cc1ccc(O)c(OC3OC(CO)C(O)C(O)C3O)c1c2-c1ccc2c(c1)OCO2` (stereo not given), the GI50 in [9] is 39.7 µM; in [5], 47.5 µM; in assay [6], 34.3 µM. Also, the TGI in assay [9], in assay [1], in assay [2], in assay [3], in assay [4] and in assay [5] was above 100 µM each time. For the same molecule, the TGI in assay [6], in assay [7] and in [8] was above 100 µM each time.

As for `COc1cc(C2c3cc4c(cc3C(NCC(O)CO)C3COC(=O)[C@H]23)OCO4)cc(OC)c1OC` (stereo not given in full), the TGI in assay [1] is above 100 µM; in [2], above 100 µM; in [3], 0.364 µM; in assay [5] it was 0.797 µM; in assay [6], above 100 µM; in assay [8], above 100 µM.

With `COc1ccccc1C1C(C(=O)Nc2ccccc2)=C(C)NC(C)=C1C(=O)Nc1ccccc1`, the TGI is above 100 µM in assay [9]; above 100 µM in assay [1]; above 100 µM in assay [2]; 65.2 µM in assay [3]; above 100 µM in assay [4]; above 100 µM in assay [5]. In addition, the TGI in assay [6] is 56.8 µM; in assay [8] it was above 100 µM.

With `COC(=O)C1=C(C(=O)OC)C2C=CC1C1C(Cl)=C(Cl)C21` (stereo not given), the TGI in assay [1], in [2], in assay [3], in assay [4], in [5] and in assay [6] was above 100 µM throughout. The TGI in assay [7] and in [8] was above 100 µM each time.

As for `COc1ccc(CNc2cc(OC)c(OC)c(OC)c2)cc1`, the TGI in assay [9] was above 42.4 µM; in assay [1], above 100 µM; in [2], above 100 µM; in assay [3] it was 9.34 µM; in assay [4], above 100 µM; in assay [5], above 55.9 µM. The TGI is above 77.8 µM in [6], above 100 µM in assay [7] and above 100 µM in [8].

In the case of `CC1=C(C(=O)Nc2ccc([N+](=O)[O-])cc2)C(c2ccc(N(C)C)cc2)C(C(=O)Nc2ccc([N+](=O)[O-])cc2)=C(C)N1`, the TGI was found to be 28.2 µM in assay [1]; 40.9 µM in assay [2]; 33.7 µM in [3]; 89.5 µM in [4]; 52.8 µM in [5]; 42.3 µM in assay [6]. Moreover, the TGI in assay [7] was above 100 µM; in [8], 43.6 µM.

As to `COc1ccc2cc1Oc1ccc(cc1)CC1c3cc(c(OC)cc3CCN1C)Oc1c3c(cc4c1C(C2)N(C)CC4)OCO3` (stereo not given), the TGI in assay [9] turned out to be 26.8 µM; in assay [1] it was 12.1 µM; in assay [2], 3.52 µM; in assay [3], 18.4 µM; in assay [5], 31.9 µM; in [6], 21.5 µM. Besides, the TGI in assay [7] was found to be 30.6 µM; in assay [8] it was 13.9 µM.

As to `COc1ccc(OC)c(NC(=O)C(=O)C(C(C)=O)c2nc3ccc(Cl)cc3[nH]c2=O)c1` (stereo not given), the TGI in assay [9], in assay [1], in [2], in [3], in assay [4] and in assay [5] was above 50 µM each time. The TGI in assay [6], in [7] and in [8] was above 50 µM each time.

Consider `OCc1ccc2[n+](c1)CCC1c3ccccc3NC21` (stereo not given), for which the TGI in [9], in assay [1], in [3], in [4], in assay [5] and in assay [6] was above 300 µM in each case. Moreover, the TGI in assay [7] and in assay [8] was above 300 µM each time.

As for `Clc1ccc(C2N3CCCCC3[C@@H]3c4[nH]c5ccccc5c4CCN23)cc1` (stereo not given in full), the TGI in assay [9], in [1], in assay [2], in assay [4], in [5] and in assay [6] was above 100 µM in each case. In addition, the TGI in [7] and in [8] was above 100 µM each time.

Regarding `CCCCN(CCCC)C(=O)C(=O)C(C#N)c1ccc(C)cc1` (stereo not given), the TGI in assay [9], in [1], in [2], in assay [4], in assay [5] and in assay [6] was above 100 µM throughout. The TGI in [7] and in assay [8] was above 100 µM each time.

Regarding `N#CC1(Cc2ccc(N)cc2)c2ccccc2C=CN1C(=O)c1ccccc1` (stereo not given), the TGI in [9] is above 100 µM; in [1], above 100 µM; in assay [2], above 100 µM; in [3] it was 85.7 µM; in assay [5] it was above 100 µM; in [6] it was above 100 µM. The TGI in [7] and in assay [8] was above 100 µM each time.

Consider `O=C(N/N=C/c1ccccc1O)c1cccc([N+](=O)[O-])c1`, for which the TGI in assay [9] was above 100 µM; in [1] it was above 100 µM; in assay [2] it was 43.2 µM; in assay [3], above 100 µM; in assay [5] it was above 95.5 µM; in [6], above 100 µM. Also, the TGI in assay [7] and in [8] was above 100 µM in each case.

As for `CC(C)CC(=O)[O-].CC(C)CC(=O)[O-].N.N.N.N.[Co+3].[O-][Cl+3]([O-])([O-])[O-]`, the GI50 in assay [9], in assay [1], in assay [2], in assay [3], in assay [5] and in [6] was above 100 µM each time. In addition, the GI50 in assay [7] and in assay [8] was above 100 µM in each case. Besides, the TGI in [9], in assay [1], in assay [2], in [3], in assay [5] and in [6] was above 100 µM throughout. Besides, the TGI in assay [7] and in [8] was above 100 µM throughout.

With `Cc1nc2c(nc1Cl)nc(Oc1ccc(Cl)cc1)c1ccccc12`, the TGI is above 100 µM in assay [9]; above 100 µM in [1]; above 100 µM in assay [2]; above 100 µM in assay [3]; above 100 µM in [4]; 85 µM in assay [5]. Moreover, the TGI in assay [6], in assay [7] and in assay [8] was above 100 µM throughout.

Consider `COc1ccc2[nH]c3c(C)c4c(c(C)c3c2c1)CN(C)CC4`, for which the TGI in [9] is 11.8 µM; in assay [1], 27.5 µM; in assay [2], 30.5 µM; in assay [3] it was 31.2 µM; in assay [4], 34.1 µM; in assay [6], 74.1 µM. For the same molecule, the results for the TGI in assay [7] and in assay [8] were 33.9 µM and 35 µM, respectively.

As for `CCCCCCCCCCCCCC(=O)OC1CC(=O)OC1CO` (stereo not given), the TGI was above 100 µM in assay [9]; 39.7 µM in assay [2]; above 100 µM in [3]; above 100 µM in assay [4]; 52.1 µM in [6]; above 100 µM in assay [7]. For the same molecule, the TGI in [8] was above 100 µM.

For `CC12CC[C@@H](C(C)(C)O)C1[C@@H](O)CC1(C)C2CCC2[C@@]3(C)CC[C@H](O)C(C)(C)C3C(O)C[C@]21C` (stereo not given in full), the TGI in assay [9] was 31.3 µM; in [1] it was 40.2 µM; in assay [2], above 100 µM; in assay [3], 66.7 µM; in assay [5] it was 39.2 µM; in assay [7] it was 29.7 µM. This molecule also displayed a TGI in assay [8] of 29.1 µM.

Take `CCCCNC1=C(C(=O)OCC)C(=O)CO1`: the TGI in assay [1], in assay [2], in assay [3], in assay [4], in assay [5] and in [6] was above 100 µM each time. In addition, the TGI in [7] and in assay [8] was above 100 µM in each case.

In the case of `CCCCCCCCCC[C@@H](O)[C@@H]1CC[C@H]([C@H]2CC[C@@H]([C@@H](O)CCCCCCCCCC[C@H]3CC(CC(C)=O)C(=O)O3)O2)O1` (stereo not given in full), the TGI in assay [9] was 17.8 µM; in assay [1] it was 24.4 µM; in assay [2] it was 35.3 µM; in [3], 28.8 µM; in assay [4], 75.8 µM; in assay [5], 16.4 µM. Also, the TGI amounted to 18.8 µM in [6] and 30.6 µM in [7].

Consider `N=C1CSC2=NC3=C(CCC/C3=C\c3ccccc3)C(c3ccccc3)N12` (stereo not given), for which the TGI in assay [9] worked out at 13.2 µM; in [2], 13 µM; in assay [3], 21.3 µM; in assay [4], 29.2 µM; in [5], 15.6 µM; in assay [6] it was 8.03 µM. For the same molecule, the TGI came out at 19.1 µM in assay [7] and 24.8 µM in assay [8].

Take `COc1ccc2ccc3c(c2c1)CN1CCc2cc(OC)c(OC)cc2C1C3` (stereo not given): the TGI in assay [1], in assay [2], in assay [3], in assay [4], in [5] and in assay [6] was above 100 µM throughout. Moreover, the TGI in assay [8] is above 100 µM.

Take `COC(=O)CC(=O)C[P+](c1ccccc1)(c1ccccc1)c1ccccc1`: the TGI in [9], in [1], in assay [3], in assay [4], in [5] and in assay [6] was above 218 µM in each case. Besides, the TGI in assay [7] and in [8] was above 218 µM each time.
